Measured values published in ChEMBL document CHEMBL2331142, “Synthesis of new triazole acetamides with inotropic effects” (Bioorg Med Chem Lett, 2013).
Calls of active or inactive are those of the source. No cut-off for these calls is given here.

Experiments:
Oryctolagus cuniculus [1] = species: Oryctolagus cuniculus; assay: (§1) Positive inotropic effect in rabbit left atrium assessed as increase in stroke volume at 3 x 10^-5 M measured for 2 mins relative to control; assay type: functional; details: Cardiac atrium
[2] = as §1; assay type: functional, Oryctolagus cuniculus, Cardiac atrium
Oryctolagus cuniculus [3] = species: Oryctolagus cuniculus; assay: Positive inotropic effect in rabbit left atrium assessed as increase in stroke volume at 1 x 10^-4 M measured for 2 mins; assay type: functional, tissue-based; details: Cardiac atrium
Oryctolagus cuniculus [4] = species: Oryctolagus cuniculus; assay: Chronotropic effect in rabbit heart assessed as change in heart rate at 3 x 10^-5 M by electrocardiogram analysis relative to control; assay type: ADME, organism-based; details: in vivo, 30 µM
[5] = Ratio of compound activity to milrinone activity for increase in stroke volume in rabbit left atrium at 3 x 10^-5 M; assay type: functional, Oryctolagus cuniculus, Cardiac atrium

Structure (SMILES): CCCCCCCCN1CCN(CC(=O)Nc2ccc3c(c2)CCc2nnc(-c4cccc(Cl)c4)n2-3)CC1
- Activity (Oryctolagus cuniculus [1]): inactive

Structure (SMILES): COc1ccc(CN2CCN(CC(=O)Nc3ccc4c(c3)CCc3nnc(-c5ccccc5Cl)n3-4)CC2)cc1
- Activity [2]: 9.12%

Structure (SMILES): O=C(CN1CCN(Cc2cccc(Br)c2)CC1)Nc1ccc2c(c1)CCc1nnc(-c3cccc(Cl)c3)n1-2
- Activity (Oryctolagus cuniculus [1]): inactive

Structure (SMILES): COc1ccc(CN2CCN(CC(=O)Nc3ccc4c(c3)CCc3nnc(-c5cccc(Cl)c5)n3-4)CC2)cc1
- Activity (Oryctolagus cuniculus [3]): Active
- Activity (Oryctolagus cuniculus [4]): Non-toxic
- Activity [2]: 16.84%

Structure (SMILES): O=C(CN1CCN(Cc2ccccc2Cl)CC1)Nc1ccc2c(c1)CCc1nnc(-c3cccc(Cl)c3)n1-2
- Activity [2]: 0.8%

Structure (SMILES): CCCCN1CCN(CC(=O)Nc2ccc3c(c2)CCc2nnc(-c4cccc(Cl)c4)n2-3)CC1
- Activity [2]: 2.33%

Structure (SMILES): O=C(CN1CCN(Cc2ccc(Br)cc2)CC1)Nc1ccc2c(c1)CCc1nnc(-c3cccc(Cl)c3)n1-2
- Activity [2]: 2.31%

Structure (SMILES): O=C(CN1CCN(Cc2ccc(F)cc2)CC1)Nc1ccc2c(c1)CCc1nnc(-c3cccc(Cl)c3)n1-2
- Activity (Oryctolagus cuniculus [4]): Non-toxic
- Activity [2]: 16.49%

Structure (SMILES): Cc1[nH]c(=O)c(C#N)cc1-c1ccncc1 [MILRINONE]
- Activity [2]: 2.46%

Structure (SMILES): O=C(CN1CCN(Cc2ccccc2F)CC1)Nc1ccc2c(c1)CCc1nnc(-c3cccc(Cl)c3)n1-2
- Activity (Oryctolagus cuniculus [3]): Active
- Activity (Oryctolagus cuniculus [4]): Non-toxic
- Ratio [5]: 8.2
- Activity [2]: 20.29%

Structure (SMILES): O=C(CN1CCN(Cc2cccc(Cl)c2)CC1)Nc1ccc2c(c1)CCc1nnc(-c3ccccc3Cl)n1-2
- Activity [2]: 2.18%

Structure (SMILES): O=C(CN1CCN(Cc2ccc(Cl)c(Cl)c2)CC1)Nc1ccc2c(c1)CCc1nnc(-c3cccc(Cl)c3)n1-2
- Activity (Oryctolagus cuniculus [1]): inactive

Structure (SMILES): O=C(CN1CCN(Cc2ccc(F)cc2)CC1)Nc1ccc2c(c1)CCc1nnc(-c3ccccc3Cl)n1-2
- Activity [2]: 4.58%

Structure (SMILES): O=C(CN1CCN(Cc2cccc(F)c2)CC1)Nc1ccc2c(c1)CCc1nnc(-c3cccc(Cl)c3)n1-2
- Activity [2]: 6.33%

Structure (SMILES): CCCCCN1CCN(CC(=O)Nc2ccc3c(c2)CCc2nnc(-c4cccc(Cl)c4)n2-3)CC1
- Activity [2]: 0.8%

Structure (SMILES): O=C(CN1CCN(Cc2ccc(Cl)cc2Cl)CC1)Nc1ccc2c(c1)CCc1nnc(-c3cccc(Cl)c3)n1-2
- Activity (Oryctolagus cuniculus [1]): inactive

Structure (SMILES): O=C(CN1CCN(Cc2ccc(Cl)cc2)CC1)Nc1ccc2c(c1)CCc1nnc(-c3cccc(Cl)c3)n1-2
- Activity [2]: 7.22%

Structure (SMILES): CCCCCCN1CCN(CC(=O)Nc2ccc3c(c2)CCc2nnc(-c4cccc(Cl)c4)n2-3)CC1
- Activity (Oryctolagus cuniculus [1]): inactive

Structure (SMILES): O=C(CN1CCN(Cc2cccc(Cl)c2)CC1)Nc1ccc2c(c1)CCc1nnc(-c3cccc(Cl)c3)n1-2
- Activity (Oryctolagus cuniculus [4]): Toxic
- Activity [2]: 15.75%

Structure (SMILES): O=C(CN1CCN(Cc2ccccc2F)CC1)Nc1ccc2c(c1)CCc1nnc(-c3ccccc3Cl)n1-2
- Activity [2]: 2.39%

Structure (SMILES): Cc1ccc(CN2CCN(CC(=O)Nc3ccc4c(c3)CCc3nnc(-c5cccc(Cl)c5)n3-4)CC2)cc1
- Activity [2]: 4.25%

Structure (SMILES): O=C(CN1CCN(Cc2ccccc2)CC1)Nc1ccc2c(c1)CCc1nnc(-c3ccccc3Cl)n1-2
- Activity (Oryctolagus cuniculus [4]): Non-toxic
- Activity [2]: 15.62%

Structure (SMILES): O=C(CN1CCN(Cc2ccccc2)CC1)Nc1ccc2c(c1)CCc1nnc(-c3cccc(Cl)c3)n1-2
- Activity [2]: 8.07%

Structure (SMILES): O=C(CN1CCN(Cc2ccccc2Br)CC1)Nc1ccc2c(c1)CCc1nnc(-c3cccc(Cl)c3)n1-2
- Activity (Oryctolagus cuniculus [1]): inactive
